# From PubChem BioAssay (NCI)
#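 Cultured in 96-well plates, cells were exposed to test compound for 48 hours across five concentrations. GI50: concentration for 50% inhibition of growth. TGI denotes the concentration required for complete inhibition of growth.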
# Columns and labels:
# Assay in all cases: NCI-60 cell line screen, 48 h
# 786-0 renal = tested on: 786-0 renal
# A498 renal = tested on: A498 renal
# A549 NSCLC = tested on: A549 NSCLC
# ACHN renal = tested on: ACHN renal
# BT-549 breast = tested on: BT-549 breast
# CAKI-1 renal = tested on: CAKI-1 renal
# CCRF-CEM leukemia = tested on: CCRF-CEM leukemia
# COLO 205 colon = tested on: COLO 205 colon
# DU-145 prostate = tested on: DU-145 prostate
# EKVX NSCLC = tested on: EKVX NSCLC
# HCC-2998 colon = tested on: HCC-2998 colon
# HCT-116 colon = tested on: HCT-116 colon
# HCT-15 colon = tested on: HCT-15 colon
# HL-60(TB) leukemia = tested on: HL-60(TB) leukemia
# HOP-62 NSCLC = tested on: HOP-62 NSCLC
# HOP-92 NSCLC = tested on: HOP-92 NSCLC
# HS 578T breast = tested on: HS 578T breast
# HT29 colon = tested on: HT29 colon
# IGROV1 ovarian = tested on: IGROV1 ovarian
# K-562 leukemia = tested on: K-562 leukemia
# KM12 colon = tested on: KM12 colon
# LOX IMVI melanoma = tested on: LOX IMVI melanoma
# M14 melanoma = tested on: M14 melanoma
# MALME-3M melanoma = tested on: MALME-3M melanoma
# MCF7 breast = tested on: MCF7 breast
# MDA-MB-231 breast = tested on: MDA-MB-231 breast
# MDA-MB-435 = tested on: MDA-MB-435
# MOLT-4 leukemia = tested on: MOLT-4 leukemia
# NCI-H226 lung = tested on: NCI-H226 lung
# NCI-H23 lung = tested on: NCI-H23 lung
# NCI-H460 lung = tested on: NCI-H460 lung
# NCI-H522 lung = tested on: NCI-H522 lung
# NCI/ADR-RES ovarian = tested on: NCI/ADR-RES ovarian
# OVCAR-3 ovarian = tested on: OVCAR-3 ovarian
# OVCAR-4 ovarian = tested on: OVCAR-4 ovarian
# OVCAR-5 ovarian = tested on: OVCAR-5 ovarian
# OVCAR-8 ovarian = tested on: OVCAR-8 ovarian
# PC-3 prostate = tested on: PC-3 prostate
# RPMI-8226 leukemia = tested on: RPMI-8226 leukemia
# RXF 393 renal = tested on: RXF 393 renal
# SF-268 CNS = tested on: SF-268 CNS
# SF-295 CNS = tested on: SF-295 CNS
# SF-539 CNS = tested on: SF-539 CNS
# SK-MEL-2 melanoma = tested on: SK-MEL-2 melanoma
# SK-MEL-28 melanoma = tested on: SK-MEL-28 melanoma
# SK-MEL-5 melanoma = tested on: SK-MEL-5 melanoma
# SK-OV-3 ovarian = tested on: SK-OV-3 ovarian
# SN12C renal = tested on: SN12C renal
# SNB-19 CNS = tested on: SNB-19 CNS
# SNB-75 CNS = tested on: SNB-75 CNS
# SR leukemia = tested on: SR leukemia
# SW-620 colon = tested on: SW-620 colon
# T-47D breast = tested on: T-47D breast
# TK-10 renal = tested on: TK-10 renal
# U251 CNS = tested on: U251 CNS
# UACC-257 melanoma = tested on: UACC-257 melanoma
# UACC-62 melanoma = tested on: UACC-62 melanoma
# UO-31 renal = tested on: UO-31 renal
smiles,measurement,setting,value
CCOC(=O)c1ccc(NC(=O)N2CC(C)OC(C)C2)cc1 (stereo unspecified),GI50,786-0 renal,> 100 µM
same,TGI,786-0 renal,> 100 µM
same,GI50,A498 renal,> 100 µM
same,TGI,A498 renal,> 100 µM
same,GI50,A549 NSCLC,> 100 µM
same,TGI,A549 NSCLC,> 100 µM
same,GI50,ACHN renal,> 100 µM
same,TGI,ACHN renal,> 100 µM
same,GI50,BT-549 breast,> 100 µM
same,TGI,BT-549 breast,> 100 µM
same,GI50,CAKI-1 renal,> 100 µM
same,TGI,CAKI-1 renal,> 100 µM
same,GI50,CCRF-CEM leukemia,> 100 µM
same,TGI,CCRF-CEM leukemia,> 100 µM
same,GI50,COLO 205 colon,> 100 µM
same,TGI,COLO 205 colon,> 100 µM
same,GI50,DU-145 prostate,> 100 µM
same,TGI,DU-145 prostate,> 100 µM
same,GI50,EKVX NSCLC,> 100 µM
same,TGI,EKVX NSCLC,> 100 µM
same,GI50,HCC-2998 colon,> 100 µM
same,TGI,HCC-2998 colon,> 100 µM
same,GI50,HCT-116 colon,> 100 µM
same,TGI,HCT-116 colon,> 100 µM
same,GI50,HCT-15 colon,> 100 µM
same,TGI,HCT-15 colon,> 100 µM
same,GI50,HL-60(TB) leukemia,> 100 µM
same,TGI,HL-60(TB) leukemia,> 100 µM
same,GI50,HOP-62 NSCLC,> 100 µM
same,TGI,HOP-62 NSCLC,> 100 µM
same,GI50,HOP-92 NSCLC,> 100 µM
same,TGI,HOP-92 NSCLC,> 100 µM
same,GI50,HS 578T breast,> 100 µM
same,TGI,HS 578T breast,> 100 µM
same,GI50,HT29 colon,> 100 µM
same,TGI,HT29 colon,> 100 µM
same,GI50,IGROV1 ovarian,> 100 µM
same,TGI,IGROV1 ovarian,> 100 µM
same,GI50,K-562 leukemia,> 100 µM
same,TGI,K-562 leukemia,> 100 µM
same,GI50,KM12 colon,> 100 µM
same,TGI,KM12 colon,> 100 µM
same,GI50,LOX IMVI melanoma,> 100 µM
same,TGI,LOX IMVI melanoma,> 100 µM
same,GI50,M14 melanoma,> 100 µM
same,TGI,M14 melanoma,> 100 µM
same,GI50,MALME-3M melanoma,> 100 µM
same,TGI,MALME-3M melanoma,> 100 µM
same,GI50,MCF7 breast,> 100 µM
same,TGI,MCF7 breast,> 100 µM
same,GI50,MDA-MB-231 breast,> 100 µM
same,TGI,MDA-MB-231 breast,> 100 µM
same,GI50,MDA-MB-435,> 100 µM
same,TGI,MDA-MB-435,> 100 µM
same,GI50,MOLT-4 leukemia,> 100 µM
same,TGI,MOLT-4 leukemia,> 100 µM
same,GI50,NCI-H226 lung,> 100 µM
same,TGI,NCI-H226 lung,> 100 µM
same,GI50,NCI-H23 lung,> 100 µM
same,TGI,NCI-H23 lung,> 100 µM
same,GI50,NCI-H460 lung,> 100 µM
same,TGI,NCI-H460 lung,> 100 µM
same,GI50,NCI-H522 lung,> 100 µM
same,TGI,NCI-H522 lung,> 100 µM
same,GI50,NCI/ADR-RES ovarian,> 100 µM
same,TGI,NCI/ADR-RES ovarian,> 100 µM
same,GI50,OVCAR-3 ovarian,> 100 µM
same,TGI,OVCAR-3 ovarian,> 100 µM
same,GI50,OVCAR-4 ovarian,> 100 µM
same,TGI,OVCAR-4 ovarian,> 100 µM
same,GI50,OVCAR-5 ovarian,> 100 µM
same,TGI,OVCAR-5 ovarian,> 100 µM
same,GI50,OVCAR-8 ovarian,> 100 µM
same,TGI,OVCAR-8 ovarian,> 100 µM
same,GI50,PC-3 prostate,> 100 µM
same,TGI,PC-3 prostate,> 100 µM
same,GI50,RPMI-8226 leukemia,> 100 µM
same,TGI,RPMI-8226 leukemia,> 100 µM
same,GI50,RXF 393 renal,> 100 µM
same,TGI,RXF 393 renal,> 100 µM
same,GI50,SF-268 CNS,> 100 µM
same,TGI,SF-268 CNS,> 100 µM
same,GI50,SF-295 CNS,> 100 µM
same,TGI,SF-295 CNS,> 100 µM
same,GI50,SF-539 CNS,> 100 µM
same,TGI,SF-539 CNS,> 100 µM
same,GI50,SK-MEL-2 melanoma,> 100 µM
same,TGI,SK-MEL-2 melanoma,> 100 µM
same,GI50,SK-MEL-28 melanoma,> 100 µM
same,TGI,SK-MEL-28 melanoma,> 100 µM
same,GI50,SK-MEL-5 melanoma,> 100 µM
same,TGI,SK-MEL-5 melanoma,> 100 µM
same,GI50,SK-OV-3 ovarian,> 100 µM
same,TGI,SK-OV-3 ovarian,> 100 µM
same,GI50,SN12C renal,> 100 µM
same,TGI,SN12C renal,> 100 µM
same,GI50,SNB-19 CNS,> 100 µM
same,TGI,SNB-19 CNS,> 100 µM
same,GI50,SNB-75 CNS,> 100 µM
same,TGI,SNB-75 CNS,> 100 µM
same,GI50,SR leukemia,> 100 µM
same,TGI,SR leukemia,> 100 µM
same,GI50,SW-620 colon,> 100 µM
same,TGI,SW-620 colon,> 100 µM
same,GI50,T-47D breast,> 100 µM
same,TGI,T-47D breast,> 100 µM
same,GI50,TK-10 renal,> 100 µM
same,TGI,TK-10 renal,> 100 µM
same,GI50,U251 CNS,> 100 µM
same,TGI,U251 CNS,> 100 µM
same,GI50,UACC-257 melanoma,> 100 µM
same,TGI,UACC-257 melanoma,> 100 µM
same,GI50,UACC-62 melanoma,> 100 µM
same,TGI,UACC-62 melanoma,> 100 µM
same,GI50,UO-31 renal,> 100 µM
same,TGI,UO-31 renal,> 100 µM
